Usually Emax stands for the greatest response seen or fitted, relative to the assay's reference. The inhibition in vivo is the share of the control response that was lost under treatment.

The text below walks through data of ChEMBL document CHEMBL3596111, “Synthesis and evaluation of the anti-nociceptive and anti-inflammatory activity of 4-aminoquinoline derivatives” (Bioorg Med Chem, 2015).

Series [1] has as its system Mus musculus. Kind of series: Anti-nociceptive activity in Swiss mouse assessed as reduction in time spent in licking injected paw during neurogenic phase at 100 umol/kg, ip dosed 40 mins before formalin injection. In kind it is functional, organism-based.
Series [2] relates to Mus musculus. Kind of series: Anti-nociceptive activity in Swiss mouse assessed as reduction in time spent in licking injected paw during inflammatory phase at 100 umol/kg, ip dosed 40 mins before formalin injection. In kind it is functional, organism-based.
The subject of series [3] is Mus musculus. Kind of series: Anti-nociceptive activity in ip dosed Swiss mouse assessed as inhibition of acetic acid-induced writhing dosed 40 mins before acetic acid injection and measured over 25 mins. In kind it is functional. The settings on record: read-out: ID50 (the source's name). (In writhing tests, fewer writhes than in controls are read as antinociception.)

For series [4], the system named is Mus musculus. Kind of series: Anti-nociceptive activity in ip dosed Swiss mouse assessed as inhibition of acetic acid-induced writhing dosed 40 mins before acetic acid injection and measured over 25 mins relative to control. In kind it is functional.
Series [5] concerns Rattus norvegicus. Nature of the series: Renal toxicity in Wistar rat model complete Freund's adjuvant-induced arthritis assessed as effect on urea levels at 100 umol/kg, ip dosed from day 14 to day 21 after immunization. In kind it is organism-based. The settings on record: in vivo.
Series [6] concerns Mus musculus. Nature of the series: Anti-inflammatory activity in Swiss mouse assessed as inhibition of zymosan-induced peritonitis by measuring reduction in leukocyte migration at 100 umol/kg, ip administered 30 min before the zymosan injection. In kind it is functional.
In series [7] the test system is Mus musculus. Nature of the series: Anti-nociceptive activity in Swiss mouse assessed as reduction in paw licking response during inflammatory phase at 100 umol/kg, ip dosed 40 mins before formalin injection. In kind it is functional.
Series [8] relates to Rattus norvegicus. Kind of series: Hepatotoxicity in Wistar rat model complete Freund's adjuvant-induced arthritis assessed as effect on serum AST level at 100 umol/kg, ip dosed from day 14 to day 21 after immunization. It counts as toxicity, organism-based. The settings on record: in vivo.
Series [9] deals with Rattus norvegicus. Nature of the series: Toxicity in Wistar rat model complete Freund's adjuvant-induced arthritis assessed as effect on spleen weight at 100 umol/kg, ip dosed from day 14 to day 21 after immunization. The settings on record: in vivo. It counts as organism-based.
Series [10] relates to Rattus norvegicus. Nature of the series: Anti-inflammatory activity in Wistar rat model complete Freund's adjuvant-induced arthritis assessed as reduction in paw edema at 100 umol/kg, ip dosed from day 14 to day 21 after immunization and measured on until day of sacrifice. It counts as functional, organism-based.
Series [11] relates to Rattus norvegicus. Nature of the series: Anti-inflammatory activity in Wistar rat model complete Freund's adjuvant-induced arthritis assessed as reduction in paw edema at 100 umol/kg, ip dosed from day 14 to day 21 after immunization and measured on day 17. In kind it is functional, organism-based.
For series [12], the system named is Rattus norvegicus. Nature of the series: Hepatotoxicity in Wistar rat model complete Freund's adjuvant-induced arthritis assessed as effect on serum ALT level at 100 umol/kg, ip dosed from day 14 to day 21 after immunization. It counts as toxicity, organism-based. The settings on record: in vivo.
Series [13] concerns Rattus norvegicus. Nature of the series: Renal toxicity in Wistar rat model complete Freund's adjuvant-induced arthritis assessed as effect on creatinine levels at 100 umol/kg, ip dosed from day 14 to day 21 after immunization. It counts as organism-based. The settings on record: in vivo.
The subject of series [14] is Mus musculus. Nature of the series: Anti-nociceptive activity in Swiss mouse assessed as reduction in paw licking response during inflammatory phase at 10 umol/kg, ip dosed 40 mins before formalin injection. It counts as functional.
Series [15] concerns Mus musculus. Kind of series: Anti-inflammatory activity in Swiss mouse assessed as inhibition of zymosan-induced peritonitis by measuring reduction in leukocyte migration at 10 umol/kg, ip administered 30 min before the zymosan injection. In kind it is functional.
Series [16] relates to Rattus norvegicus. Kind of series: Anti-inflammatory activity in Wistar rat model complete Freund's adjuvant-induced arthritis assessed as reduction in paw edema at 5 umol/kg, ip dosed from day 14 to day 21 after immunization and measured on day 16. In kind it is functional, organism-based.

Active and inactive are the calls of the source. The rule behind the calls is not given here.

For `NCCNCCNc1ccnc2cc(Cl)ccc12`, the result with Mus musculus [1] and in the series with Mus musculus [2] was Active. Also, in the series on Mus musculus [3], the ED50 is 39.4 µmol/kg. In the series on Mus musculus [4], the Emax was 86.4%.

As to `NCCNCCNc1ccnc2cc(C(F)(F)F)ccc12`, the Activity result with Rattus norvegicus [5], with Rattus norvegicus [8], with Rattus norvegicus [9], in the series with Rattus norvegicus [12] and in the series with Rattus norvegicus [13] was “Non-toxic” throughout. Moreover, the inhibition in vivo at 100 µmol/kg with Mus musculus [6] came out at 59.1%; with Mus musculus [7] it was 89.6%. In addition, the result in the series on Mus musculus [1], in the series with Mus musculus [2], with Rattus norvegicus [10] and in the series with Rattus norvegicus [11] was Active. Besides, the ED50 in the series on Mus musculus [3] is 15.3 µmol/kg. Moreover, in the series on Mus musculus [4], the Emax turned out to be 96.7%.

Regarding `Cc1c(N(C)CS(=O)(=O)O)c(=O)n(-c2ccccc2)n1C` [METAMIZOLE], the ED50 in the series on Mus musculus [3] was 36.8 µmol/kg. The Emax in the series with Mus musculus [4] turned out to be 74.8%.

On to `COc1ccc2c(c1)c(CC(=O)O)c(C)n2C(=O)c1ccc(Cl)cc1` [INDOMETHACIN], for which the inhibition in vivo at 10 µmol/kg in the series with Mus musculus [14] worked out at 50.8%; in the series on Mus musculus [15] it was 75.8%.

`C[C@@H]1C[C@H]2[C@@H]3CCC4=CC(=O)C=C[C@]4(C)[C@@]3(F)[C@@H](O)C[C@]2(C)[C@@]1(O)C(=O)CO`: the outcome in the series with Rattus norvegicus [16] was Active.

Turning to `NCCNCCNc1cc(C(F)(F)F)nc2ccccc12`, the result in the series with Mus musculus [1] and with Mus musculus [2] was Active. For the same compound, in the series on Mus musculus [3], the ED50 was determined as 26.6 µmol/kg. In the series on Mus musculus [4], the Emax amounted to 95.1%.
